Here are results for 4 molecules from patent publication US9259404B2 (NESTEC S.A., priority 2012, dated 2016).

“Also recorded” adds a separate entry of the source.

One data set has as its system Nrf2. As to the kind of experiment: Nrf2 reporter assay (AREc32 cell line, luciferase under control of the ARE). It is filed as cell-based. The note with it: AREc32 cells, 24 h, dose range 0 to 200 μM (FIG. 3). As to the method:
Activation of Nrf2 was measured using an Nrf2 reporter assay. This assay is based on the AREc32 cell line, from CRX biosciences (Dundee, Scotland), a stably transfected MCF7 (breast adenocarcinoma) cell line that contains a luciferase gene construct under the control of the ARE. Luciferase is an enzyme which digests luciferin and produces […]. Anti-oxidative molecules such as Tert-butylhydroquinone (TBHQ) induce luciferase transcription via the activation of Nrf2 that binds to ARE. Luciferase activity is determined using a luciferase kit form Promega (Madison, Wis.). The luciferase activity is proportional to the activation of Nrf2. […] The luciferase activity and the cell viability (ATP measurements) were determined using the Luciferase and Cell Titer-Glo kits from Promega. For each run the luciferase activities, measured in Relative Light Units (RLU), of all the wells were normalized with the mean of the luciferase activity of the cells only of all the plates. Among all the samples tested the normalization procedure was found not to affect the data and this observation permits the comparison of samples measured in different runs. For each sample the Nrf2 activation was calculated as follows: […] […] The luciferase content per sample allows a semi quantification of the Nrf2 activation by reflecting the amount of the Nrf2 activating molecule. […]
(A reporter such as luciferase makes a cellular process visible.)

In the next data set the test system is AREc32 cells. As to the kind of experiment: Cell viability of AREc32 cells (ATP quantification, Cell Titer-Glo). It is filed as cell-based. The note with it: 24 h. The protocol:
The cell viability, measured by ATP quantification, is expressed as relative percentages of control (untreated) cells. The results are expressed as means of technical triplicates±SD and are representative of four independent experiments.
To determine the Nrf2 activation the samples were tested on AREC32 cells (seeded in 96 well plates) using 10 independent dilutions (1/2, 1/4, 1/6, 1/10, 1/15, 1/20, 1/25, 1/30, 1/40 and 1/50) and incubated for 24 hours at 37° C. in a 5% CO2/air incubator. The luciferase activity and the cell viability (ATP measurements) were determined using the Luciferase and Cell Titer-Glo kits from Promega.
The cell viability was also measured using a cell Titer-Glo kit (ATP quantification).
On the technique in general: ATP-based viability assays read luminescence as a measure of living cells.

Data set [1] deals with neuron astrocyte co-cultures. Description: Neuron-astrocyte co-culture, oxidative stress induced by hydrogen peroxide, MTT assay. The note with it: 48 hours pre-treatment, 100 μM hydrogen peroxide 4 hours. Format: cell-based, mouse. From the text:
The beneficial effect of compounds on cell survival is classically investigated by challenging the cell cultures with neurotoxic insults and measuring the resulting oxidative stress and excitotoxicity over a limited period of time (Aksenova et al., Current Neurovascular Research, 2, 73-89 (2005)). […] The model consists of primary neurons plated on glass coverslips that face astrocytes seeded on the bottom of a culture dish. The two cellular compartments are separated by paraffin beads, but released compounds (e.g., energy substrates and glutathione precursors) can freely diffuse from one compartment to the other through the culture medium. Primary cultures of mouse neurons are grown for 12 days in Neurobasal™ medium on 20 mm diameter glass coverslips. Primary cultures of mouse astrocytes are grown for 21 days in astrocytes culture medium in 35 mm diameter dishes. Two hours before initiation of the co-culture, the astrocyte medium is removed and replaced by a fresh neuronal medium. The co-culture is initiated by putting the glass coverslips bearing neurons in the dishes containing astrocyte culture so that neurons face astrocytes. […] For detection this purple product is solubilised for colorimetric quantification at 560 nm using a spectrophotometer.
A general note: Tetrazolium dyes change colour on reduction, which living cells bring about.

The conditions of data set [2]: background statement; cited from earlier work.

With `CC(=O)/C=C/C(=O)O` [4-oxo-2-pentenoic acid], the “Nrf2 activation (in words)” value with Nrf2 is listed as “activates Nrf2; also recorded: strongly activate Nrf2 in a dose dependent manner”. Moreover, in the data set on AREc32 cells, the “Doses at which viability of AREc32 cells was not affected” value is listed as “lower than 70 μM”. Moreover, in data set [1], the “Concentration giving the strongest protective effect” value is 5 µM. Also, the “Protection of neurons against oxidative stress (in words)” value in data set [1] (all tested concentrations (5 μM to 30 μM) except 10 μM) was “protects neuronal cells against oxidative stress; also recorded: clear and significant protection”.
Regarding `COc1cc(/C=C/C(=O)CC(=O)/C=C/c2ccc(O)c(OC)c2)ccc1O` [curcumin], the “Aqueous solubility (in words)” value in data set [2] is on record as “very low aqueous solubility”.
Take `O=c1c(O)c(-c2ccc(O)c(O)c2)oc2cc(O)cc(O)c12` [quercitin]: the “Aqueous solubility (in words)” value in data set [2] is on record as “very low aqueous solubility”.
`Oc1ccc(C=Cc2cc(O)cc(O)c2)cc1` [resveratrol]: the “Aqueous solubility (in words)” value in data set [2] is on record as “very low aqueous solubility”.
